# Laboratory results reported in patent publication US20250052751A1, “COMPOSITIONS AND METHODS FOR DIAGNOSING AUTOIMMUNE AQUAPORINOPATHY” (The Regents of the University of California, priority 2023, published 2025).
# Entries after “also recorded” stand apart in the source; their conditions may differ.
# Assays:
# [1] = tested on: draining lymph node cells; experiment: Proliferation assay, ^3H-thymidine incorporation after s.c. peptide immunization; format: cell-based, mouse
# Method: FIGS. 2A-2F. Pathogenic AQP4 determinants bind I-A^b with high affinity and elicit proliferation of AQP4: I-A^b-specific TCR-bearing T cells in AQP4-deficient mice. (FIG. 2A) WT or AQP4^−/− mice were immunized s.c. with peptides indicated. Peptide-specific proliferation of draining lymph node cells was measured by 3H-thymidine incorporation (mean±SEM, representative of five experiments). (FIG. 2B) Lymph node cells from AQP4 immunized WT or AQP4^−/− mice were cultured for 3 days with cognate antigen under Th17 polarizing conditions. AQP4 p133-149- and p202-218-specific Th17 cells from AQP4/donors induce paralysis in WT recipient mice. (FIG. 2C) IEDB, an in silico method for predicting determinants within proteins that bind MHC alleles, was used to identify AQP4 amino acid sequences anticipated to bind I-A^b for recognition by AQP4-specific/I-A^b-restricted CD4^+ T cells. 1/IC50 is plotted against the first amino acid for each overlapping AQP4 15 mer. Peaks correspond to increased predicted binding affinity. (FIG. 2D) Purified I-A^b molecules were tested biochemically for peptide binding affinity using a competitive binding assay between a radiolabeled high-affinity competitor peptide and unlabeled peptides (22). Lower IC50 values indicate higher binding affinity. Boxed amino acids designate the core binding regions. (FIGS. 2E-2F) Lymph node T cells isolated from WT or AQP4−/− mice immunized with AQP4 p133-149 or p202-218 were stained with I-A^b:p133-149 and […] tetramers, bead-enriched and analyzed by flow cytometry. […] Each data point represents one mouse. ****p<0.0001 (Mann Whitney U test).
# FIGS. 4A-4B. Negative selection of AQP4 p133-149-reactive T cells is bypassed partially in mice deficient in thymic AQP4 expression. (FIG. 4A) AQP4^−/− WT, Foxn1cre-AQP4^fl/fl, Aire^−/−, or Foxn1cre-Fezf2^fl/fl mice were immunized s.c. with peptides indicated. Peptide-specific proliferation of draining lymph node cells was measured by 3H-thymidine incorporation (mean±SEM, representative of five experiments). Comparisons within the five experiments for p133-149 at […]: WT vs. AQP4^−/− (p=0.008), WT vs. Foxn1cre-AQP4^fl/fl (p=0.008). (FIG. 4B) Ten days after peptide immunization, CD4^+ T cells from draining lymph nodes were analyzed for I-A^b: peptide tetramer binding by flow cytometry. Each data point represents the frequency (mean±SEM) of CD4^+ T cells bound to cognate antigen-tetramer in a single mouse. […] For p133-149: WT vs. Aire^−/− (p=0.9), WT vs. Foxn1cre-Fezf2^fl/fl (p=0.3). For p202-218: WT vs. Foxn1cre-AQP4^fl/fl (p=0.3), WT vs. Aire^−/− (p=0.06).
# Proliferation assays. Mice were immunized subcutaneously (s.c.) with 100 μg of AQP4, MOG or IRBP peptide in CFA containing 400 μg M. tuberculosis H37Ra (Difco Laboratories). Lymph nodes were harvested on day 10-12 and cultured at 2×10^5/well with various concentrations of peptide in triplicate wells for 72 hours. […] of ^3H-thymidine was added 18 hours prior to cell harvest, and data are presented as counts per minute (CPM). Stimulation Index (SI) was calculated by dividing CPM in wells with Ag by CPM in wells with no antigen controls of each assay test group.
# [2] = tested on: WT, RAG1^−/−, TCRa^−/− and JHT recipient mice; experiment: Adoptive transfer of Th17-polarized peptide-specific T cells, clinical and histologic CNS disease; format: in vivo, mouse
# Text: FIGS. 5A-5B. Pathogenic AQP4-specific Th17 cells induce sustained CNS autoimmune disease in T cell-deficient mice. (FIG. 5A) Th17-polarized AQP4 p133-149-specific T cells from AQP4−/− mice were transferred into WT, T cell- and B cell-deficient (T cell-/B cell-, RAG1^−/−), T cell-deficient (T cell-, TCRa^−/−) and B cell-deficient (B cell-, JHT) recipient mice then scored for clinical disease. Donor Th17-polarized MOG p35-55-specific T cells were transferred into WT recipient mice as a control. Results are representative of four experiments (n=5 per group). (FIG. 5B) Recipient mice were evaluated for histologic evidence of meningeal and CNS parenchymal inflammation (H&E). Results are representative of two experiments (2-4 mice/group/time-point/experiment).
# CNS autoimmune disease induction and analysis. For adoptive induction of CNS disease with primary lymphocytes, mice were immunized s.c. with 100 μg AQP4 or MOG peptides in CFA containing 400 μg M. tuberculosis H37Ra (Difco Laboratories). After 10-12 days, lymph node cells were cultured with 15 μg/ml antigen for 3 days with 20 ng/ml IL-23 and 10 ng/ml IL-6, under Th17 polarizing conditions. 2×10^7 cells were injected i.v. into naïve recipients, which then received 200 ng B. pertussis toxin (Ptx) (List Biological) i.p. on days 0 and 2. Clinical scores: 0=no disease, 1=tail tone loss, 2=impaired righting, 3=severe paraparesis or paraplegia, 4=quadraparesis, and 5=moribund or death.
# For induction of CNS disease by I-A^b:AQP4 tet-sorted cells targeted cells, primary lymph node cells from AQP4 or WT mice were restimulated with […] antigen and irradiated splenocytes every 10 days. Percent tetramer binding was monitored by flow cytometry. In preparation for adoptive transfer, cells were washed and cultured with 1:10 T cell-to-irradiated splenocytes under polarizing conditions for 3 days. CD4^+ cells were negatively sorted using magnetic beads (Miltenyi). 5×10^6 were transferred to TCRa^−/− recipients. 200 ng Ptx was given on days 0 and 2.
# Histopathology. Brain, spinal cord, optic nerve, kidney and muscle tissue samples were fixed in 10% neutral-buffered formalin, paraffin-embedded, sectioned and stained with H&E. Meningeal and parenchymal inflammatory lesions and areas of demyelination were assessed in a blinded manner as described (39).
# [3] = AQP4^−/− mice immunized with the peptide
# [4] = Aire^−/− mice immunized with the peptide
# [5] = Foxn1cre-AQP4^fl/fl mice immunized with the peptide
# [6] = WT mice immunized with the peptide
# [7] = donor Th17 cells from AQP4^−/− mice, recipient WT and JHT mice
Sequence,"peptide-specific proliferation of draining lymph node cells [1, 3]","peptide-specific proliferation of draining lymph node cells [1, 4]","peptide-specific proliferation of draining lymph node cells [1, 5]","peptide-specific proliferation of draining lymph node cells [1, 6]",clinical and histologic CNS disease after transfer of peptide-specific Th17 cells ([2]; WT recipient mice),"peptide-specific proliferation of draining lymph node cells ([1]; AQP4^−/− mice immunized with the peptide, listed as p133-149)",peptide-specific proliferation of draining lymph node cells ([1]; Foxn1cre-Fezf2^fl/fl mice immunized with the peptide),CNS autoimmunity after transfer of tet^+-sorted T cells ([2]; I-A^b:AQP4 p133-149 tet^+-sorted T cells from immunized AQP4^−/− mice),"onset of paralysis after transfer [2, 7]","time from onset to complete recovery [2, 7]",clinical and histologic CNS disease after transfer of peptide-specific Th17 cells ([2]; recipient RAG1^−/− and TCRa^−/− mice),"CNS inflammation (H&E) ([2]; recipient WT and JHT mice, day 21)"
LFAINYTGASMNPARSF [AQP4 p202-218],robust proliferative responses; also recorded: strong proliferation,no significant responses,only marginal responses,no significant responses,capable of inducing paralysis and CNS inflammation in WT mice,–,–,–,–,–,–,–
LYLVTPPSVVGGLGVT [AQP4 p133-149],robust proliferative T cell responses,little or no proliferation,"induced proliferation in Foxn1cre-AQP4^fl/fl mice, but not to the same level as in AQP4^−/− mice",little or no proliferation,capable of inducing paralysis and CNS inflammation in WT mice,robust proliferative responses,little or no proliferation,transferred CNS autoimmunity to WT mice,~7 days,4 to 5 days,persistent paralysis and CNS inflammation,no longer evident after recovery
